In patent US10800791B2, “Triazole ACC inhibitors and uses thereof” (Gilead Apollo, LLC, priority 2015, dated 2020):
≈ marks a conversion by molar mass, not a printed value. Like-named read-outs stand apart in the source and are kept apart here.

Experiments:
[1] = system: C. parapsilosis; test: Antifungal Activity Assay (broth microtiter MIC), C. parapsilosis; format: cell-based, Candida parapsilosis; details: Lodderomyces parapsilosis, ATCC22019, 48 h
In short: (§1)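 MICs were scored by eye at 48 h relative to the growth control. Plates followed CLSI M27-A3, with Candida suspensions in RPMI 1640+MOPS giving a final 2.5×10^3 CFU/mL; the colonies came from Sabouraud agar grown overnight at 35 °C.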

[2] = molecular target: human (hACC2) (Homo sapiens, UniProt O00763); test: In vitro ACC inhibition assay (ADP-Glo), hACC2; format: biochemical; details: 5 nM ACC2, 20 μM ATP, 20 μM acetyl-CoA
Procedure: The detailed procedure is as follows. […] 10 μL ADP glo reagent was added. […] 20 μL kinase detection reagent was added.

[3] = system: Phytophthora capsici (Pc); test: Growth inhibition assay of fungal pathogens, Pc; format: cell-based; details: 48 h
In short: (§2)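 Percent inhibition derived at 48 hours from OD600 and visual scores versus 2% DMSO control, with media+DMSO blank as background. Spore inocula in 17% V8 medium were sized from 48 h growth curves; compounds tested at final 50/10/2 or 2/0.4/0.08 ppm.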

[4] = system: Septoria tritici (St); test: Growth inhibition assay of fungal pathogens, St; format: cell-based; details: Zymoseptoria tritici, 48 h
In short: as §2

[5] = system: C. krusei; test: Antifungal Activity Assay (broth microtiter MIC), C. krusei; format: cell-based, Candida krusei; details: Pichia kudriavzevii, ATCC6258, 48 h
In short: as §1

[6] = system: Fusarium moniliforme (Fm); test: Growth inhibition assay of fungal pathogens, Fm; format: cell-based; details: for IC90: Fusarium verticillioides, 48 h, read-out: Concentration at 90% Inhibition Fm
In short: as §2

[7] = system: Fusarium virguliforme (Fv); test: Growth inhibition assay of fungal pathogens, Fv; format: cell-based; details: 48 h
In short: as §2

[8] = system: Rhizoctonia solani (Rs); test: Growth inhibition assay of fungal pathogens, Rs; format: cell-based; details: 48 h
[9] = system: Botrtyis cinerea (Bc); test: Growth inhibition assay of fungal pathogens, Bc; format: cell-based; details: 48 h
In short: as §2

[10] = read-out: MIC, C. parapsilosis ATCC 22019, Table 3a, 3 replicates, MIC recorded at 48 h
[11] = read-out: MIC, C. parapsilosis ATCC 22019, Table 3b (additional results), 3 replicates, MIC recorded at 48 h
[12] = read-out: Concentration at 90% Inhibition Pc, Phytophthora capsici, growth inhibition at 48 hours vs 2% DMSO control
[13] = read-out: Concentration at 90% Inhibition Pc, Phytophthora capsici, growth inhibition vs 2% DMSO control at 48 hours
[14] = read-out: Concentration at 90% Inhibition St, Septoria tritici, growth inhibition at 48 hours vs 2% DMSO control
[15] = read-out: Concentration at 90% Inhibition St, Septoria tritici, growth inhibition vs 2% DMSO control at 48 hours
[16] = read-out: MIC, C. krusei ATCC 6258, Table 3a, 3 replicates, MIC recorded at 48 h
[17] = read-out: MIC, C. krusei ATCC 6258, Table 3b (additional results), 3 replicates, MIC recorded at 48 h
[18] = Fusarium moniliforme, growth inhibition at 48 hours vs 2% DMSO control
[19] = read-out: Concentration at 90% Inhibition Fv, Fusarium virguliforme, growth inhibition at 48 hours vs 2% DMSO control
[20] = read-out: Concentration at 90% Inhibition Fv, Fusarium virguliforme, growth inhibition vs 2% DMSO control at 48 hours
[21] = read-out: Concentration at 90% Inhibition Rs, Rhizoctonia solani, mycelial plugs, growth inhibition at 48 hours vs 2% DMSO control
[22] = read-out: Concentration at 90% Inhibition Rs, Rhizoctonia solani, mycelial plugs, growth inhibition vs 2% DMSO control at 48 hours
[23] = read-out: Concentration at 90% Inhibition Bc, Botrtyis cinerea, growth inhibition at 48 hours vs 2% DMSO control
[24] = read-out: Concentration at 90% Inhibition Bc, Botrtyis cinerea, growth inhibition vs 2% DMSO control at 48 hours

Sequence of human (hACC2) (O00763 whole entry): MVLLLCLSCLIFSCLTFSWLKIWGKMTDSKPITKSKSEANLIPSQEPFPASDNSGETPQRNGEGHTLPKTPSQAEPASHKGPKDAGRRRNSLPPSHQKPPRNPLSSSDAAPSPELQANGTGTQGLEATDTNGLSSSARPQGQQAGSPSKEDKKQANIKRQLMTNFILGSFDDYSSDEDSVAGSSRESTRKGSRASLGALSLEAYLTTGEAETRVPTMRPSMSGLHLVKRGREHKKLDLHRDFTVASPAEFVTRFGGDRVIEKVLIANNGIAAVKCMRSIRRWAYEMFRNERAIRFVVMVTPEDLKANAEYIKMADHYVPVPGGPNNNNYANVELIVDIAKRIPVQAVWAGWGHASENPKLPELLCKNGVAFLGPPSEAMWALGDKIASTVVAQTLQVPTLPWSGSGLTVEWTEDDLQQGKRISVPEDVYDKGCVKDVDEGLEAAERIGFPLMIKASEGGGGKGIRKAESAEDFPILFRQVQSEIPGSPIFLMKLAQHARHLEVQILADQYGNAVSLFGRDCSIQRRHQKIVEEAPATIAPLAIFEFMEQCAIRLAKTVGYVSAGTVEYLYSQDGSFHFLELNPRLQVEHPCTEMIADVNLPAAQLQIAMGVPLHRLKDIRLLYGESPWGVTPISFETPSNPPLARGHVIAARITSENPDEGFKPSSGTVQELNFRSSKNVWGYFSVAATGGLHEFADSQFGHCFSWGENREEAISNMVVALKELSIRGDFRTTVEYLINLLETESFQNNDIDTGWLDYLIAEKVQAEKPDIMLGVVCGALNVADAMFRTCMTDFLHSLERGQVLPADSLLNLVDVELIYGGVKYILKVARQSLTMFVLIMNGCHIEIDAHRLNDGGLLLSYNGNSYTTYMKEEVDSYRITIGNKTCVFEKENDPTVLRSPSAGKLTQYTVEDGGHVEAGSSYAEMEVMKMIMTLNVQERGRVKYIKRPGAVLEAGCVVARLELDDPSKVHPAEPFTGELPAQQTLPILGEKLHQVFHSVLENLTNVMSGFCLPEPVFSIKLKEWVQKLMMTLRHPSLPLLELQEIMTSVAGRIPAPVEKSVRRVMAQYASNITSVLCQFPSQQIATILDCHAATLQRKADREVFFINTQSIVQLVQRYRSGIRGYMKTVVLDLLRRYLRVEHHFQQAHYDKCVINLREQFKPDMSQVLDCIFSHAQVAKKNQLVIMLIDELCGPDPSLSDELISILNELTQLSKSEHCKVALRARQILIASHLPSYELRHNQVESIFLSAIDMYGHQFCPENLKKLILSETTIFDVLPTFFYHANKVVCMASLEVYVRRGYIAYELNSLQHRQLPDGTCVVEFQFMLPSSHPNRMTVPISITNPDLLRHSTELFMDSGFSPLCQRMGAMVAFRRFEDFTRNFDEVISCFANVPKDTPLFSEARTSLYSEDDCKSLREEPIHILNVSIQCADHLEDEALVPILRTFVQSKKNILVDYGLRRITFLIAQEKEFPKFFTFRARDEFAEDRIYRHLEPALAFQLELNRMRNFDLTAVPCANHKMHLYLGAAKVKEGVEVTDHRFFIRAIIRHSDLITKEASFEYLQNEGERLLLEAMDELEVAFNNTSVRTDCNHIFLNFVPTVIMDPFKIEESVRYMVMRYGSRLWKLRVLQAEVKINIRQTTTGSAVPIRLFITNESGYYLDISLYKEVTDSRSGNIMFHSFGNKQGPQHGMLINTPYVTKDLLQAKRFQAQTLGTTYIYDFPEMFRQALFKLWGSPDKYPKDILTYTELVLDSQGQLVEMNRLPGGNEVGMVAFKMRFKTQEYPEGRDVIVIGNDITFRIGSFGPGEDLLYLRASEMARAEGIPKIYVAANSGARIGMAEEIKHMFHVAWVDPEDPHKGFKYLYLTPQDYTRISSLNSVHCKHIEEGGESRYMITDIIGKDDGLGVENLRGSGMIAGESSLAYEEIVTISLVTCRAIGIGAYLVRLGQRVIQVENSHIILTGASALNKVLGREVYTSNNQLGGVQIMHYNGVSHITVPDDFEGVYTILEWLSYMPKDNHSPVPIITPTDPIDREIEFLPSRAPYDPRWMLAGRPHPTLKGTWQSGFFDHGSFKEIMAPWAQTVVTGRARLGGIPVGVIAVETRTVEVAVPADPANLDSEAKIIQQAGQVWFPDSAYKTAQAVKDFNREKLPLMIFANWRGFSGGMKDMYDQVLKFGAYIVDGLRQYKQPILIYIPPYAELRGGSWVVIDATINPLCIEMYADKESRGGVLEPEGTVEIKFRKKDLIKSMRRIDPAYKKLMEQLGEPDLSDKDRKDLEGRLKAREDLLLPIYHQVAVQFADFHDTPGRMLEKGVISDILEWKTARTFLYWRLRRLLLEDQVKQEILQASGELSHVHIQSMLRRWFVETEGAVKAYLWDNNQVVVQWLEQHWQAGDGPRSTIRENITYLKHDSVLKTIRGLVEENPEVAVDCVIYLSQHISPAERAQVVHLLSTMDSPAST

COc1ccc(F)cc1[C@H](Cn1c(=O)n(C(C)(C)C(=O)N2CCOCC2)c(=O)c2c(C)c(-n3nccn3)sc21)OC(C)C [Compound I-5, (R)-1-(2-(5-fluoro-2-methoxyphenyl)-2-isopropoxyethyl)-5-methyl-3-(2-methyl-1-morpholino-1-oxopropan-2-yl)-6-(2H-1,2,3-triazol-2-yl)thieno[2,3-d]pyrimidine-2,4(1H,3H)-dione] was tested, and the MIC [1, 10] was 2.1 to 4 µg/mL (≈ 3.42 to 6.51 µM), the MIC [1, 11] was > 4.01 µg/mL and the IC50 ([2]; Table 2a) was 10 to 40 nM. The IC50 ([2]; Table 2b, additional results) was 10 to 40 nM, the IC90 [3, 12] was > 50 µg/mL and the IC90 [3, 13] was > 50 µg/mL. The IC90 [4, 14] was 10 µg/mL (≈ 16.3 µM), the IC90 [4, 15] was > 50 µg/mL and the MIC [5, 16] was 1.1 to 2 µg/mL (≈ 1.79 to 3.25 µM). For the same compound, the MIC [5, 17] was 2.01 to 4 µg/mL (≈ 3.27 to 6.51 µM), the “Concentration at 90% Inhibition Fm” value [6, 18] was “AA (compound concentration of 0.08 ppm at 90% inhibition of fungal pathogens)” and the IC90 [6] was 0.08 µg/mL (≈ 0.13 µM). It also gave an IC90 [7, 19] of 0.4 µg/mL (≈ 0.651 µM), an IC90 [7, 20] of 0.4 µg/mL (≈ 0.651 µM) and an IC90 [8, 21] of 0.4 µg/mL (≈ 0.651 µM). For the same compound, the IC90 [8, 22] was 0.4 µg/mL (≈ 0.651 µM), the IC90 [9, 23] was 0.4 µg/mL (≈ 0.651 µM) and the IC90 [9, 24] was 0.4 µg/mL (≈ 0.651 µM).
Work on COc1ccc(F)cc1[C@H](Cn1c(=O)n(C(C)(C)C(=O)N2CCCCC2)c(=O)c2c(C)c(-n3nccn3)sc21)OC(C)C [Compound I-6, (R)-1-(2-(5-fluoro-2-methoxyphenyl)-2-isopropoxyethyl)-5-methyl-3-(2-methyl-1-oxo-1-(piperidin-1-yl)propan-2-yl)-6-(2H-1,2,3-triazol-2-yl)thieno[2,3-d]pyrimidine-2,4(1H,3H)-dione] yielded an MIC [1, 10] of 1.1 to 2 µg/mL (≈ 1.8 to 3.26 µM), an MIC [1, 11] of 1.01 to 2 µg/mL (≈ 1.65 to 3.26 µM) and an IC50 ([2]; Table 2a) of 10 to 40 nM. The IC50 ([2]; Table 2b, additional results) was 10 to 40 nM, the IC90 [3, 12] was > 50 µg/mL and the IC90 [3, 13] was > 50 µg/mL. It also gave an IC90 [4, 14] of 2 µg/mL (≈ 3.26 µM), an IC90 [4, 15] of 10 µg/mL (≈ 16.3 µM) and an MIC [5, 16] of 0.25 to 1 µg/mL (≈ 0.408 to 1.63 µM). For the same compound, the MIC [5, 17] was 0.25 to 1 µg/mL (≈ 0.408 to 1.63 µM), the “Concentration at 90% Inhibition Fm” value [6, 18] was “AA (compound concentration of 0.08 ppm at 90% inhibition of fungal pathogens)” and the IC90 [6] was 0.08 µg/mL (≈ 0.131 µM). It also gave an IC90 [7, 19] of 0.08 µg/mL (≈ 0.131 µM), an IC90 [7, 20] of 0.08 µg/mL (≈ 0.131 µM) and an IC90 [8, 21] of 0.08 µg/mL (≈ 0.131 µM). For the same compound, the IC90 [8, 22] was 0.08 µg/mL (≈ 0.131 µM), the IC90 [9, 23] was 0.08 µg/mL (≈ 0.131 µM) and the IC90 [9, 24] was 0.08 µg/mL (≈ 0.131 µM).
For COc1ccc(F)cc1[C@H](Cn1c(=O)n(C(C)(C)C(N)=O)c(=O)c2c(C)c(-n3nccn3)sc21)OCC(C)C [Compound I-8, (R)-2-(1-(2-(5-fluoro-2-methoxyphenyl)-2-isobutoxyethyl)-5-methyl-2,4-dioxo-6-(2H-1,2,3-triazol-2-yl)-1,4-dihydrothieno[2,3-d]pyrimidin-3(2H)-yl)-2-methylpropanamide], the MIC ([1]; Table 3a, ATCC 22019, 3 replicates, MIC recorded at 48 h, read-out: MIC, C. parapsilosis ATCC 22019) was 2.1 to 4 µg/mL (≈ 3.76 to 7.16 µM), the MIC ([1]; Table 3b (additional results), ATCC 22019, 3 replicates, MIC recorded at 48 h, read-out: MIC, C. parapsilosis ATCC 22019) was 2.01 to 4 µg/mL (≈ 3.6 to 7.16 µM) and the IC50 ([2]; Table 2a) was 5 to 10 nM. For the same compound, the IC50 ([2]; Table 2b, additional results) was 5 to 10 nM, the IC90 ([3]; growth inhibition at 48 hours vs 2% DMSO control, read-out: Concentration at 90% Inhibition Pc) was > 50 µg/mL and the IC90 ([3]; growth inhibition vs 2% DMSO control at 48 hours, read-out: Concentration at 90% Inhibition Pc) was > 50 µg/mL. The IC90 ([4]; Septoria tritici, growth inhibition at 48 hours vs 2% DMSO control, read-out: Concentration at 90% Inhibition St) was > 50 µg/mL, the IC90 ([4]; Septoria tritici, growth inhibition vs 2% DMSO control at 48 hours, read-out: Concentration at 90% Inhibition St) was > 50 µg/mL and the MIC ([5]; Table 3a, ATCC 6258, 3 replicates, MIC recorded at 48 h, read-out: MIC, C. krusei ATCC 6258) was 1.1 to 2 µg/mL (≈ 1.97 to 3.58 µM). For the same compound, the MIC ([5]; Table 3b (additional results), ATCC 6258, 3 replicates, MIC recorded at 48 h, read-out: MIC, C. krusei ATCC 6258) was 1.01 to 2 µg/mL (≈ 1.81 to 3.58 µM), the IC90 [6, 18] was 0.08 µg/mL (≈ 0.143 µM) and the IC90 ([6]; Fusarium moniliforme, growth inhibition vs 2% DMSO control at 48 hours) was 0.08 µg/mL (≈ 0.143 µM). The IC90 ([7]; growth inhibition at 48 hours vs 2% DMSO control, read-out: Concentration at 90% Inhibition Fv) was 2 µg/mL (≈ 3.58 µM), the IC90 ([7]; growth inhibition vs 2% DMSO control at 48 hours, read-out: Concentration at 90% Inhibition Fv) was 2 µg/mL (≈ 3.58 µM) and the IC90 ([8]; mycelial plugs, growth inhibition at 48 hours vs 2% DMSO control, read-out: Concentration at 90% Inhibition Rs) was 2 µg/mL (≈ 3.58 µM). For the same compound, the IC90 ([8]; mycelial plugs, growth inhibition vs 2% DMSO control at 48 hours, read-out: Concentration at 90% Inhibition Rs) was 2 µg/mL (≈ 3.58 µM), the IC90 ([9]; Botrtyis cinerea, growth inhibition at 48 hours vs 2% DMSO control, read-out: Concentration at 90% Inhibition Bc) was 2 µg/mL (≈ 3.58 µM) and the IC90 ([9]; Botrtyis cinerea, growth inhibition vs 2% DMSO control at 48 hours, read-out: Concentration at 90% Inhibition Bc) was 2 µg/mL (≈ 3.58 µM).
